Experimental data from ChEMBL document CHEMBL4507259 (2021).

Assays:
[1] = molecular target: T1, Muscarinic acetylcholine receptor M4 (Homo sapiens) (UniProt P08173); assay: M4 (h) CEREP ligand profiling; settings: filed as antagonist, Compound concentration 10.0 uM
T1 sequence (whole entry): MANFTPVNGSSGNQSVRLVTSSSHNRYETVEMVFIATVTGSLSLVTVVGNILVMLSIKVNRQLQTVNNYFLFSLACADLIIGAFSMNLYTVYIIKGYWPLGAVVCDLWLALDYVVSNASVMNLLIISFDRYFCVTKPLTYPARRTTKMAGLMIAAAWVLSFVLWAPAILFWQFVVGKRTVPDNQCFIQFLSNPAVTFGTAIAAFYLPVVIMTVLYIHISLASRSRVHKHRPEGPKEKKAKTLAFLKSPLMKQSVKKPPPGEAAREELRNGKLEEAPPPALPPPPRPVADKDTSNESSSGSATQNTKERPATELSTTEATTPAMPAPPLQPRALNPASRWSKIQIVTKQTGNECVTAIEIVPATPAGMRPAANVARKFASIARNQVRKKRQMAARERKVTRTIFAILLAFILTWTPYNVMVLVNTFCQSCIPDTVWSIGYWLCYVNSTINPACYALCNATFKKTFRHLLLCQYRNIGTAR

[2] = molecular target: P2X receptor (Rattus norvegicus) (UniProt P51579+P49653+P51578+Q64663+P47824+P51577+P49654); assay: P2X CEREP ligand profiling; format: protein assay; settings: filed as agonist; Compound concentration 10.0 uM
[3] = molecular target: Ca2+ channel (L, diltiazem site) (benzothiazepines); voltage-gated L-type calcium channel (family) (Homo sapiens, UniProt O60840+Q01668+Q13698+Q13936); assay: Ca2+ channel (L, diltiazem site) (benzothiazepines) CEREP ligand profiling; format: protein assay; settings: compound concentration 10 uM
[4] = molecular target: Bone morphogenetic protein receptor type-2 (Homo sapiens) (UniProt Q13873); settings: Compound concentration 1000.0 nM
[5] = molecular target: Calcium/calmodulin-dependent protein kinase type II subunit alpha (Homo sapiens) (UniProt Q9UQM7); settings: Compound concentration 1000.0 nM
[6] = molecular target: Tyrosine-protein kinase CSK (Homo sapiens) (UniProt P41240); settings: Compound concentration 1000.0 nM
[7] = molecular target: Casein kinase I isoform alpha (Homo sapiens) (UniProt P48729); settings: Compound concentration 1000.0 nM
[8] = molecular target: Casein kinase I isoform epsilon (Homo sapiens) (UniProt P49674); settings: Compound concentration 1000.0 nM
[9] = molecular target: Casein kinase I isoform gamma-3 (Homo sapiens) (UniProt Q9Y6M4); settings: Compound concentration 1000.0 nM
[10] = molecular target: Discoidin domain-containing receptor 2 (Homo sapiens) (UniProt Q16832); settings: Compound concentration 1000.0 nM
[11] = molecular target: Tyrosine-protein kinase Fes/Fps (Homo sapiens) (UniProt P07332); settings: Compound concentration 1000.0 nM
[12] = tested on: eIF-2-alpha kinase GCN2 (Homo sapiens), Q9P2K8 [S808G]; settings: Compound concentration 1000.0 nM
[13] = molecular target: Leucine-rich repeat serine/threonine-protein kinase 2 (Homo sapiens) (UniProt Q5S007); settings: Compound concentration 1000.0 nM
[14] = molecular target: Serine/threonine-protein kinase MARK1 (Homo sapiens) (UniProt Q9P0L2); settings: Compound concentration 1000.0 nM
[15] = molecular target: Misshapen-like kinase 1 (Homo sapiens) (UniProt Q8N4C8); settings: Compound concentration 1000.0 nM
[16] = molecular target: Mitogen-activated protein kinase kinase kinase 10 (Homo sapiens) (UniProt Q02779); settings: Compound concentration 1000.0 nM
[17] = molecular target: Serine/threonine-protein kinase 24 (Homo sapiens) (UniProt Q9Y6E0); settings: Compound concentration 1000.0 nM
[18] = molecular target: Cyclin-dependent kinase 16 (Homo sapiens) (UniProt Q00536); settings: Compound concentration 1000.0 nM
[19] = tested on: Phosphatidylinositol 4,5-bisphosphate 3-kinase catalytic subunit alpha isoform (Homo sapiens), P42336 [E545K]; settings: Compound concentration 1000.0 nM
[20] = molecular target: Protein kinase C epsilon type (Homo sapiens) (UniProt Q02156); settings: Compound concentration 1000.0 nM
[21] = molecular target: Serine/threonine-protein kinase RIO2 (Homo sapiens) (UniProt Q9BVS4); settings: Compound concentration 1000.0 nM
[22] = molecular target: STE20-like serine/threonine-protein kinase (Homo sapiens) (UniProt Q9H2G2); settings: Compound concentration 1000.0 nM
[23] = molecular target: Serine/threonine-protein kinase TAO2 (Homo sapiens) (UniProt Q9UL54); settings: Compound concentration 1000.0 nM
[24] = molecular target: Dual specificity testis-specific protein kinase 1 (Homo sapiens) (UniProt Q15569); settings: Compound concentration 1000.0 nM
[25] = molecular target: TGF-beta receptor type-1 (Homo sapiens) (UniProt P36897); settings: Compound concentration 1000.0 nM
[26] = molecular target: Tyrosine-protein kinase TXK (Homo sapiens) (UniProt P42681); settings: Compound concentration 1000.0 nM
[27] = molecular target: Serine/threonine-protein kinase 32A (Homo sapiens) (UniProt Q8WU08); settings: Compound concentration 1000.0 nM
[28] = molecular target: D(1B) dopamine receptor (Homo sapiens) (UniProt P21918); settings: Compound concentration 10.0 uM
[29] = molecular target: Histamine H2 receptor (Homo sapiens) (UniProt P25021); settings: Compound concentration 10.0 uM
[30] = molecular target: Beta-1 adrenergic receptor (Homo sapiens) (UniProt P08588); settings: Compound concentration 10.0 uM
[31] = molecular target: T2, Muscarinic acetylcholine receptor M2 (Homo sapiens) (UniProt P08172); settings: Compound concentration 10.0 uM
T2 sequence (whole entry): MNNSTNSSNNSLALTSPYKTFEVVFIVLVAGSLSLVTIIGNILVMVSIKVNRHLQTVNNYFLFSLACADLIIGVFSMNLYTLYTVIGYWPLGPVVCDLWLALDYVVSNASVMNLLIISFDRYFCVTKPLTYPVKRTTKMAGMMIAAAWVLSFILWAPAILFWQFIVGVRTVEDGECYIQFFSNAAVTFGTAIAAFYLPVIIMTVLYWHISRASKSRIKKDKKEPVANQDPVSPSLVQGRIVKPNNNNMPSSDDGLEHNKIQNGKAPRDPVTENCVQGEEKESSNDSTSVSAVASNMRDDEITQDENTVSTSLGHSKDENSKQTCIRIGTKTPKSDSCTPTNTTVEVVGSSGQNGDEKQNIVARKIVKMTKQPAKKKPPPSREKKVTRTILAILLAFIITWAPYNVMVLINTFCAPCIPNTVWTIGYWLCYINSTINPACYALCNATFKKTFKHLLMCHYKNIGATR

Chain of Misshapen-like kinase 1 (Homo sapiens) (Q8N4C8 whole entry, looked up): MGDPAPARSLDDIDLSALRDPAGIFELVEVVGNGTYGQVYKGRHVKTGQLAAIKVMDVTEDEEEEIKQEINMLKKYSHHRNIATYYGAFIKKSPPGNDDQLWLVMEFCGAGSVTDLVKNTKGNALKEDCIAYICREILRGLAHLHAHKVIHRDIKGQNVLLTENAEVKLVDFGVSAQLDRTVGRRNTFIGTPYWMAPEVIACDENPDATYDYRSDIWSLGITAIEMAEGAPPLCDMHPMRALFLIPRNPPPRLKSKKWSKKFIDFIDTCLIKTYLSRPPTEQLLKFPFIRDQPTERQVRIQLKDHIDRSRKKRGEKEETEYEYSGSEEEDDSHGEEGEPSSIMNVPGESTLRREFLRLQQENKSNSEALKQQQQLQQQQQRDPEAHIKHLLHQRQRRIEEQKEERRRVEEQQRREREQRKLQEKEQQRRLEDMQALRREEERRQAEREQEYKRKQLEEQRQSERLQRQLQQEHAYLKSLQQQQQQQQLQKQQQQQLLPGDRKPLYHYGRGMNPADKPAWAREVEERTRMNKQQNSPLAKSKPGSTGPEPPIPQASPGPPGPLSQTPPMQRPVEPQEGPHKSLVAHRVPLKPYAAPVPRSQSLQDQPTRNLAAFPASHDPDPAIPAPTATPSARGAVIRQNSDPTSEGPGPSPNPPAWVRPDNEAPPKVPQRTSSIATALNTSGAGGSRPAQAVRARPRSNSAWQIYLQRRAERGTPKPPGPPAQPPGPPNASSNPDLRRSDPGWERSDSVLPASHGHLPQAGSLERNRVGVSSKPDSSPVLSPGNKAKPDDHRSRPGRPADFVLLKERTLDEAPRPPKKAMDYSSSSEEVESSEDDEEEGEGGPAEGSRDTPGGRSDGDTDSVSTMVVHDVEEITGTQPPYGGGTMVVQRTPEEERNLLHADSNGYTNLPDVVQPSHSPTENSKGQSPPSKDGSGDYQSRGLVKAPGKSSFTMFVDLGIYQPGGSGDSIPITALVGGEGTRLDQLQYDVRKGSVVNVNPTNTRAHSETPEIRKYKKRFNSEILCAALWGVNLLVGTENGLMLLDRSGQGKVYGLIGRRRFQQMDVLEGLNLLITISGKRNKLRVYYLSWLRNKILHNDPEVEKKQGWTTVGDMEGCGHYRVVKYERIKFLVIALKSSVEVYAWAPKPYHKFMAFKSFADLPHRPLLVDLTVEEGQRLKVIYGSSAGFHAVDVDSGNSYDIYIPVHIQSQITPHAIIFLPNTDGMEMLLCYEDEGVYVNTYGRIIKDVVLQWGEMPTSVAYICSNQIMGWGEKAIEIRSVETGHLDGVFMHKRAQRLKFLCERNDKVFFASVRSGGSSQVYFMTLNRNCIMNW
Chain of Protein kinase C epsilon type (Homo sapiens) (Q02156 whole entry): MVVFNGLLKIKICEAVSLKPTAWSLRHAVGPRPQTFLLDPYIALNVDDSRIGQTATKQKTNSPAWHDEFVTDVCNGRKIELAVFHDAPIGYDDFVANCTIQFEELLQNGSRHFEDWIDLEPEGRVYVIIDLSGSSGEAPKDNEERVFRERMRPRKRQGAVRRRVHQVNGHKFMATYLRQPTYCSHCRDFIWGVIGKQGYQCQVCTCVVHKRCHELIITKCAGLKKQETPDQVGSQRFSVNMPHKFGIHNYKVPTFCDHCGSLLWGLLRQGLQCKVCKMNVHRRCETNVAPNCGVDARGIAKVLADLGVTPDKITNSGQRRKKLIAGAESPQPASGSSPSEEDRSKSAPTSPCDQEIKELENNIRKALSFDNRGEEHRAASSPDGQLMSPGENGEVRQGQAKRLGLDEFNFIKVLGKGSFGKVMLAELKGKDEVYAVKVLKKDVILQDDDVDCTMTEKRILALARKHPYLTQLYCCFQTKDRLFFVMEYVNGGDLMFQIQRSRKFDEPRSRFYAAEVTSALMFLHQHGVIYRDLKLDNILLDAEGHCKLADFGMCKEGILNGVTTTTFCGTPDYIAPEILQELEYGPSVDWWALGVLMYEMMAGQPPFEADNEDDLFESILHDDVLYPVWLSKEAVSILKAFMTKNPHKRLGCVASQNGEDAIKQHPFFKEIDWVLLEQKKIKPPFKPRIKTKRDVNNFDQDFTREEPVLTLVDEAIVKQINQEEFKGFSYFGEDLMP
Chain of Mitogen-activated protein kinase kinase kinase 10 (Homo sapiens) (Q02779 whole entry, looked up): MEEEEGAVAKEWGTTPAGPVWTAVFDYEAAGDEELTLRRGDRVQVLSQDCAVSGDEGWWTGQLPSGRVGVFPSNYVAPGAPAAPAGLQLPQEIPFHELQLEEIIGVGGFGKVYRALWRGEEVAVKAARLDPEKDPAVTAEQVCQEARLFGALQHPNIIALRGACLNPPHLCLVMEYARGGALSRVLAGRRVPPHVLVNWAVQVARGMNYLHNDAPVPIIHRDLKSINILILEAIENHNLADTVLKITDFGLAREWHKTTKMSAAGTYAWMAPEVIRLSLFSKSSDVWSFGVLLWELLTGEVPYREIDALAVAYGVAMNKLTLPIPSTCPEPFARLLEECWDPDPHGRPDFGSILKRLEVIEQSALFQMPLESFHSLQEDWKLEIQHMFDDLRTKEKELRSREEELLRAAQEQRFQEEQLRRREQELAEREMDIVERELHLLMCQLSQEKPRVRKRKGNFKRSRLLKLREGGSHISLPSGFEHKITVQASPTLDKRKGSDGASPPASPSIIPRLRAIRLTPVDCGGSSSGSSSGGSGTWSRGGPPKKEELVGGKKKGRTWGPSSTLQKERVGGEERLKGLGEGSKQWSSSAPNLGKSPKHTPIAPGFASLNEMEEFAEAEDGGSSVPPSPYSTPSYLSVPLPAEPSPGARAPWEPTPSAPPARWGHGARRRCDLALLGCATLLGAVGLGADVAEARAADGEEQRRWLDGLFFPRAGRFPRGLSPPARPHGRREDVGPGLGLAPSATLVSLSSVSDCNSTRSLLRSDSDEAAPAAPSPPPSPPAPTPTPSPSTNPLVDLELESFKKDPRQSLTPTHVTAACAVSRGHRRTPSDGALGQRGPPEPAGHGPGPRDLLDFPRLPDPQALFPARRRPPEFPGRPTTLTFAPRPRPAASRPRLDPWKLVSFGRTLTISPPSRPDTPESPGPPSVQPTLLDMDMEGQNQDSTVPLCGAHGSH
Chain of Casein kinase I isoform gamma-3 (Homo sapiens) (Q9Y6M4 whole entry, looked up, the tested form may be a part, canonical isoform): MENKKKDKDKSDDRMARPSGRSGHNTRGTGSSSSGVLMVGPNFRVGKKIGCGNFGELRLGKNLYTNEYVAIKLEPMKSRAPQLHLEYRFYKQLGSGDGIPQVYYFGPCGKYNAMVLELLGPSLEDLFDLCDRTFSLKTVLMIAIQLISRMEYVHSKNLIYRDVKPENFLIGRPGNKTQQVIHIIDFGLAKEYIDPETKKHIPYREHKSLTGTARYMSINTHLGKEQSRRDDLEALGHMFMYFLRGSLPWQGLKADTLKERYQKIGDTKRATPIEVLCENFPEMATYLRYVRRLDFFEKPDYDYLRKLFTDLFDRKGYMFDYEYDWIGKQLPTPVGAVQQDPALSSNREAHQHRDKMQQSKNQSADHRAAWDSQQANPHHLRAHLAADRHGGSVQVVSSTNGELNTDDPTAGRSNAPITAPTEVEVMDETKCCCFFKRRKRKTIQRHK
Chain of D(1B) dopamine receptor (Homo sapiens) (P21918 whole entry): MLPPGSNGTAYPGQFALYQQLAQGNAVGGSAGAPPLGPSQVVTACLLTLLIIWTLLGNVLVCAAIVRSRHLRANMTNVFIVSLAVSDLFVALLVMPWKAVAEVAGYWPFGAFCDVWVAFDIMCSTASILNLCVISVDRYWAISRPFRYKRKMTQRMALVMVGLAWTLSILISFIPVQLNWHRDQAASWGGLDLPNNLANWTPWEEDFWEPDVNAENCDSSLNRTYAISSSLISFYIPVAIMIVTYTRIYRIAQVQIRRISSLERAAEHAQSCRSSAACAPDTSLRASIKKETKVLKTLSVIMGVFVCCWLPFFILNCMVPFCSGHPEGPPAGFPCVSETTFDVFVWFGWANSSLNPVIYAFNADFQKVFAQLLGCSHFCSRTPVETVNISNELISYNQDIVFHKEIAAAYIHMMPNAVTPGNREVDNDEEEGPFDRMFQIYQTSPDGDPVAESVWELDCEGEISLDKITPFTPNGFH
Chain of TGF-beta receptor type-1 (Homo sapiens) (P36897 whole entry): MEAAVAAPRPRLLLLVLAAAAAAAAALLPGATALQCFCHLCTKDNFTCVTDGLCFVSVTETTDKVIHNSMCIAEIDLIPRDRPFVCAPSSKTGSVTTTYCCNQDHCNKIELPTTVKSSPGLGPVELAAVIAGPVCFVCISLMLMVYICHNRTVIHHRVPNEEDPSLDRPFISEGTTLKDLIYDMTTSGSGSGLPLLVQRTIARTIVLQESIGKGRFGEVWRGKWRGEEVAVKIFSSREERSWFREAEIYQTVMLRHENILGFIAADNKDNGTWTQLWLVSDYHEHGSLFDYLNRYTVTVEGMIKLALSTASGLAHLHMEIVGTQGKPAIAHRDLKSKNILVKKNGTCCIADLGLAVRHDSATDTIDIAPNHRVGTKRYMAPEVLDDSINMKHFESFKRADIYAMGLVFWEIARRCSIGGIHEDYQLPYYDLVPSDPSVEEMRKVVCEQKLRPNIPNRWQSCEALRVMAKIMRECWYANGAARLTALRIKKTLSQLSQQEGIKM
Chain of Calcium/calmodulin-dependent protein kinase type II subunit alpha (Homo sapiens) (Q9UQM7 whole entry): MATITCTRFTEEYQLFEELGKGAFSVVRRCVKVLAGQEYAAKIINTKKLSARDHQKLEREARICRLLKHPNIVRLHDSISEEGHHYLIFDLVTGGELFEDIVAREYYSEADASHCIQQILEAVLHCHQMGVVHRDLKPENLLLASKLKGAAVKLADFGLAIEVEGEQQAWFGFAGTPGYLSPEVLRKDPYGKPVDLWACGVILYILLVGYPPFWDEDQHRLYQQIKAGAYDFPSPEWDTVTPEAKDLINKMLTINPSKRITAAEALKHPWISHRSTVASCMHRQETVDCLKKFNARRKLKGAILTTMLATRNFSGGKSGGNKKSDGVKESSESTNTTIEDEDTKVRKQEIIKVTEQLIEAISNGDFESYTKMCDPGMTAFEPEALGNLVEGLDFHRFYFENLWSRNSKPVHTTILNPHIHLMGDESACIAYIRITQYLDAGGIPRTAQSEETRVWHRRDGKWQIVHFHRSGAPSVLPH

What does the source list for `CNC(=O)Nc1ccc2c(c1)CC[C@@]21OC(=O)N(CC(=O)N(Cc2ccc(F)cc2)[C@@H](C)C(F)(F)F)C1=O` [A-485]?
inhibition [1]: 14%; inhibition [2]: 12%; inhibition at 10 µM [3]: 2% (not active); residual activity [4]: 100%; residual activity [5]: 91%; residual activity [6]: 100%; residual activity [7]: 93%; residual activity [8]: 80%; residual activity [9]: 84%; residual activity [10]: 75%; residual activity [11]: 94%; residual activity [12]: 92%; residual activity [13]: 79%; residual activity [14]: 89%; residual activity [15]: 95%; residual activity [16]: 57%; residual activity [17]: 90%; residual activity [18]: 75%; residual activity [19]: 80%; residual activity [20]: 22%; residual activity [21]: 67%; residual activity [22]: 82%; residual activity [23]: 91%; residual activity [24]: 73%; residual activity [25]: 98%; residual activity [26]: 78%; residual activity [27]: 88%; inhibition [28]: 21.1%; inhibition [29]: 28.2%; inhibition [30]: -5.22%; inhibition [31]: -0.28%

How did the inhibition [1] turn out when `CNC(=O)Nc1ccc2c(c1)[C@@]1(CC2)OC(=O)N(CC(=O)N(Cc2ccc(F)cc2)[C@@H](C)C(F)(F)F)C1=O` [A-486] was run?
The inhibition was 6%.

And the inhibition [2]?
Its inhibition is -5%.

What about the inhibition at 10 µM [3] of the same compound?
The inhibition at 10 µM was -5% (not active).

What about the residual activity [4] of the same compound?
Its residual activity is 100%.

What about the residual activity [5] of the same compound?
The residual activity was 100%.

And the residual activity [6]?
The residual activity was 100%.

What about the residual activity [7] of the same compound?
Its residual activity is 83%.

And the residual activity [8]?
The residual activity was 80%.

What about the residual activity [9] of the same compound?
The residual activity was 89%.

What about the residual activity [10] of the same compound?
The residual activity was 100%.

And the residual activity [11]?
Its residual activity is 85%.

What about the residual activity [12] of the same compound?
The residual activity was 100%.

And the residual activity [13]?
Its residual activity is 71%.

What about the residual activity [14] of the same compound?
The residual activity was 100%.

And the residual activity [15]?
The residual activity was 78%.

What about the residual activity [16] of the same compound?
The residual activity was 73%.

And the residual activity [17]?
The residual activity was 100%.

And the residual activity [18]?
Its residual activity is 83%.

What about the residual activity [19] of the same compound?
Its residual activity is 76%.

And the residual activity [20]?
Its residual activity is 99%.

What about the residual activity [21] of the same compound?
The residual activity was 83%.

What about the residual activity [22] of the same compound?
The residual activity was 83%.

And the residual activity [23]?
The residual activity was 95%.

What about the residual activity [24] of the same compound?
Its residual activity is 100%.

And the residual activity [25]?
The residual activity was 89%.

And the residual activity [26]?
Its residual activity is 100%.

And the residual activity [27]?
Its residual activity is 100%.

What about the inhibition [28] of the same compound?
Its inhibition is 20.5%.

And the inhibition [29]?
The inhibition was 6.93%.

And the inhibition [30]?
The inhibition was -4.4%.

What about the inhibition [31] of the same compound?
Its inhibition is 3.15%.
